Experimental data reported in patent US20190197375A1, “TRACEABLE METALLIC PRODUCTS AND METALLIC SUPPORT FOR NANOSTORAGE” (9163-0384 QUEBÉC INC., priority 2013, published 2019).

What was measured:
S. aureus [1] = test: Long term conservation: antibacterial activity of impregnated anodized aluminum disks after storage; format: cell-based; details: disks impregnated 4 years ago, 2.12% w/v; deposition 5 min on agar plate lawn
Description: An experiment was designed to evaluate the presence and integrity of samples stored in the anodized metallic support.
The antimicrobial activity was measured by diffusion of the antimicrobial benzalkonium following deposition for 5 min on an agar plate lawn of S. aureus (results not shown).

S. aureus [2] = test: Antibacterial activity of anodized disk impregnated with benzalkonium chloride, deposited 5 min on agar plate lawn; format: cell-based; details: anodized disk soaked 10 min, FIG. 4
Description: Anodized and non-anodized aluminum disks were compared for incorporation/storage and recovery/diffusion of a chemical antibacterial compound. Briefly, anodized and non-anodized disks were prepared as described hereinbefore. The disks were then impregnated or not with benzalkonium chloride (an antibacterial) by soaking 10 min at room temperature and rinsed several times with water.
The disks were then tested for diffusion of the antimicrobial benzalkonium by measuring their respective antibacterial activity when deposited for 5 min on an agar plate lawn of S. aureus. […] This confirms incorporation and subsequent release of the antibacterial chemical from the anodized porous surface layer.

Q: Which “Antibacterial activity after storage in anodized aluminum disks” value (S. aureus [1]) does the source give for benzalkonium chloride here?
A: still possible to measure antibacterial activity

Q: What about the “Inhibition of bacterial growth by impregnated anodized disk” value (S. aureus [2]) of the same substance?
A: successfully inhibited bacterial growth
